Reference: patent US20230338380A1, “Stable Immediate Release Tablet and Capsule Formulations of 1-((2S,5R)-5-((7H-Pyrrolo[2,3-D]Pyrimidin-4-YL)Amino)-2-Methylpiperidin-1-YL)Prop-2-EN-1-One” (Pfizer R&D UK Limited, priority 2019, published 2023)

Assay: Dynamic vapor sorption (DVS) of filler excipients
Format: physicochemical
Conditions: excipient alone; humidity of 90% RH
Text: Also noted were the stability results for experimental formulation E, blended with lactose anhydrous. […] Lactose anhydrous was used in blend E rather than lactose monohydrate due to concerns regarding the impact of water upon the degradation of PF-06651600-15. To further explore the hygroscopic properties of lactose monohydrate, dynamic vapor sorption (DVS) traces were generated for both lactose anhydrous and lactose monohydrate (FIG. 24). The results for both were similar as the mass increased less than 2% at a humidity of 90% RH.

## OC[C@H]1O[C@@H](O[C@H]2[C@H](O)[C@@H](O)C(O)O[C@@H]2CO)[C@H](O)[C@@H](O)[C@H]1O (stereo partly shown) [lactose anhydrous]
  Mass increase (DVS): ~1.1%
